According to PMC5792193 (Proteins, 2009):
Positions of bridges follow the written chain, without caps; N, C: chain ends. Residues, ends and D or L forms follow the SMILES beside them.

What was measured:
[1] = system: U87MG tumor xenograft; conditions: peptide conjugated to a small molecule fluorochrome or radiolabel; compared to weaker binding peptide conjugates including FN-RGD2 and c(RGDyK); cited from earlier work
[2] = biological target: αvβ3 integrin (Homo sapiens, UniProt P05106+P06756); conditions: cited from earlier work
Sequence of αvβ3 integrin (P06756 31-889 limits assumed): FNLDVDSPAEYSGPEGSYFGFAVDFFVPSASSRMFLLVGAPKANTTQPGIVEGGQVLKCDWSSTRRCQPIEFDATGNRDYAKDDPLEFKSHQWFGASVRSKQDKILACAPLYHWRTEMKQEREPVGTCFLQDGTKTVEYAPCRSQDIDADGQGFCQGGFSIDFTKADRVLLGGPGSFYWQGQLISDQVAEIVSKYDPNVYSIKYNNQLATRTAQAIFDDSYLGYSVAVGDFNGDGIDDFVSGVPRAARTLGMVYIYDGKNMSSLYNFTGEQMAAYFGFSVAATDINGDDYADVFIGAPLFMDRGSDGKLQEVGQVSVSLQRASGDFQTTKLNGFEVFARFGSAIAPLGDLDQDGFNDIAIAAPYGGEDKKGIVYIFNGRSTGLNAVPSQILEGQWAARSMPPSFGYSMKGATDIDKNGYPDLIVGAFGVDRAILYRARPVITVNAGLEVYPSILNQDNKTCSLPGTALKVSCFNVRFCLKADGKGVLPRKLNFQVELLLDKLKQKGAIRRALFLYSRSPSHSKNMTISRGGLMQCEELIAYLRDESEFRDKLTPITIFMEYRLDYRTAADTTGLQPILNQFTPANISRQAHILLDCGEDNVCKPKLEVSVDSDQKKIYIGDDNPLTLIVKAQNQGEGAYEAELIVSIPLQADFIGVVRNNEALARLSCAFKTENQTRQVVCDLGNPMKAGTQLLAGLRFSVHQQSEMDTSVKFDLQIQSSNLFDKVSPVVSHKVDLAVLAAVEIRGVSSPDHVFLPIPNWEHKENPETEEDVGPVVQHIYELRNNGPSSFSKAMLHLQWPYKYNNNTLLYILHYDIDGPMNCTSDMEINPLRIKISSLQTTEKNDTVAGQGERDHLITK
Sequence of αvβ3 integrin (P06756 891-1048 partner limits assumed): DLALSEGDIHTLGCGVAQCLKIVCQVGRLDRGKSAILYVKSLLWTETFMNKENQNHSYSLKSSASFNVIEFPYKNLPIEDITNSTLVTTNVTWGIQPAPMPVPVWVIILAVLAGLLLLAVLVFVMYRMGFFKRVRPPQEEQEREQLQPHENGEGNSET
Sequence of αvβ3 integrin (P05106 27-788): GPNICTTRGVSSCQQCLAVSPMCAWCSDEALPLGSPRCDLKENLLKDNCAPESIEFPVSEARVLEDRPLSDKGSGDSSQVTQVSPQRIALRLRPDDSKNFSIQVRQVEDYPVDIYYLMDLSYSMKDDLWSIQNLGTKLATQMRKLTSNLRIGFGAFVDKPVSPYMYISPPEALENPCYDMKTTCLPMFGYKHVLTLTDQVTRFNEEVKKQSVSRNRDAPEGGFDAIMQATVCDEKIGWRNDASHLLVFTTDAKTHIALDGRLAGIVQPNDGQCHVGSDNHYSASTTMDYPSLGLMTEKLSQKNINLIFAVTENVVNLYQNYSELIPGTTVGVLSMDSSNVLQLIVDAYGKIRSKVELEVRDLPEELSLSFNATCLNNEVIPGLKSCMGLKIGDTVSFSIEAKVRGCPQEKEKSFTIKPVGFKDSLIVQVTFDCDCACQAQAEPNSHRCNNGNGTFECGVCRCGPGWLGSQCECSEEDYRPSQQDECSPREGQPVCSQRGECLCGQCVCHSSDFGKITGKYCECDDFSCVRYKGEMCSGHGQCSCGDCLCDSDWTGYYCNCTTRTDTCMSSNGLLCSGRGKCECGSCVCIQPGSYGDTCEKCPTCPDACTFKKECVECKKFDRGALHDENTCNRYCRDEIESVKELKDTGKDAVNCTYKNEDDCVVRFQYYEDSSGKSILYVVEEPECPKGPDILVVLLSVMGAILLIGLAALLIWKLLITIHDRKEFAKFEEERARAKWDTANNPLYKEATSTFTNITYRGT

[3] = biological target: α5β1 integrin (Homo sapiens, UniProt P05556+P08648); conditions: cited from earlier work
Sequence of α5β1 integrin (P08648 42-894 limits assumed): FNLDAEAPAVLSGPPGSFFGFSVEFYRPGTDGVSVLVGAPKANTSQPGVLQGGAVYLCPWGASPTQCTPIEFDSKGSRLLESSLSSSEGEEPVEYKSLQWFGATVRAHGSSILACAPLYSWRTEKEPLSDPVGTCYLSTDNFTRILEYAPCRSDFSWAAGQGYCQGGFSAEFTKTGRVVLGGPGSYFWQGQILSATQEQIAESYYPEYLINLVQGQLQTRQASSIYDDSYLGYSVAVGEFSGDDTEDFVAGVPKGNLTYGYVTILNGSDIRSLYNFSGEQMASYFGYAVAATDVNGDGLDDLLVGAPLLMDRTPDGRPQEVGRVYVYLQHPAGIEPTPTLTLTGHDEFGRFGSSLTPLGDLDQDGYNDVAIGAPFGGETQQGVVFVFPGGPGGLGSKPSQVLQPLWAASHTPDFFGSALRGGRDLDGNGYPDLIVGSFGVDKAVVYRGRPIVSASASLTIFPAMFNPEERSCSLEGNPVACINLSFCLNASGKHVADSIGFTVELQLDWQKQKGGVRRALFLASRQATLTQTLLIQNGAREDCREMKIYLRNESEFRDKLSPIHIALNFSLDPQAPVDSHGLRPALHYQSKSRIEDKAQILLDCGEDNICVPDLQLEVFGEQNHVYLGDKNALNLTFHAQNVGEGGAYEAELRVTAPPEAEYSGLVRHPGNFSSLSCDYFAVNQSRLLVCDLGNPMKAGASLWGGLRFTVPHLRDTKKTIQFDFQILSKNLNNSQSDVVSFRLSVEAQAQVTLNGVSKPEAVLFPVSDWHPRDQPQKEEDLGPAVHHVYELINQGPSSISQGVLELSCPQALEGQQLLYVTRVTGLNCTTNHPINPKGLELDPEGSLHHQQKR
Sequence of α5β1 integrin (P08648 895-1049 partner limits assumed): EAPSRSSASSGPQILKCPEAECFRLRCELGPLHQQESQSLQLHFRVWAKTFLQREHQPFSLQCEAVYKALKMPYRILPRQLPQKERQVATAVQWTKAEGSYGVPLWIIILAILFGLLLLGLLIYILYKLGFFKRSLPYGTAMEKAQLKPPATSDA
Sequence of α5β1 integrin (P05556 21-798): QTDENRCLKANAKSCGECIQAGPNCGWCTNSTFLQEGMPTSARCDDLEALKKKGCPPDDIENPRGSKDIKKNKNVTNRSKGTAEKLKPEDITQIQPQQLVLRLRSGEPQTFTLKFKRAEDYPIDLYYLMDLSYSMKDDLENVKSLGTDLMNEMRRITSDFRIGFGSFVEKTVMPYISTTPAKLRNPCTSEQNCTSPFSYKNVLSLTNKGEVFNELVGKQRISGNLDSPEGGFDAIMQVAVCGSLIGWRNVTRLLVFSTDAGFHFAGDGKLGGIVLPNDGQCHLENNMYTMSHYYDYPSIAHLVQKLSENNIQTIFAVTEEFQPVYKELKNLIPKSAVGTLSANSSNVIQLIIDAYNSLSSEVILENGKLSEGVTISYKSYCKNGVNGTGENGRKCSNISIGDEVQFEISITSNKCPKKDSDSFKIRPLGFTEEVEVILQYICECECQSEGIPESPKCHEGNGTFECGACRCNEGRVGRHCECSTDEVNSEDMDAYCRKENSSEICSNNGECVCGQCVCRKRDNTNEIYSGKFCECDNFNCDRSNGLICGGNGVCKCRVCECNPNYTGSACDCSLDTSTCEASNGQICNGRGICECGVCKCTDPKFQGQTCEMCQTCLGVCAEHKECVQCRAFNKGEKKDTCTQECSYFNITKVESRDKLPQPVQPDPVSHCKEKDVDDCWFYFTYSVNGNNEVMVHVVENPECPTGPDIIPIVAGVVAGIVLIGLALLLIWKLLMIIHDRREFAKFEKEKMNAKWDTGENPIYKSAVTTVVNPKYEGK

[4] = biological target: integrin αvβ3 (Homo sapiens) (UniProt P06756); conditions: cited from earlier work
Sequence of integrin αvβ3 (Homo sapiens) (P06756 31-1048, chain 1 of 2): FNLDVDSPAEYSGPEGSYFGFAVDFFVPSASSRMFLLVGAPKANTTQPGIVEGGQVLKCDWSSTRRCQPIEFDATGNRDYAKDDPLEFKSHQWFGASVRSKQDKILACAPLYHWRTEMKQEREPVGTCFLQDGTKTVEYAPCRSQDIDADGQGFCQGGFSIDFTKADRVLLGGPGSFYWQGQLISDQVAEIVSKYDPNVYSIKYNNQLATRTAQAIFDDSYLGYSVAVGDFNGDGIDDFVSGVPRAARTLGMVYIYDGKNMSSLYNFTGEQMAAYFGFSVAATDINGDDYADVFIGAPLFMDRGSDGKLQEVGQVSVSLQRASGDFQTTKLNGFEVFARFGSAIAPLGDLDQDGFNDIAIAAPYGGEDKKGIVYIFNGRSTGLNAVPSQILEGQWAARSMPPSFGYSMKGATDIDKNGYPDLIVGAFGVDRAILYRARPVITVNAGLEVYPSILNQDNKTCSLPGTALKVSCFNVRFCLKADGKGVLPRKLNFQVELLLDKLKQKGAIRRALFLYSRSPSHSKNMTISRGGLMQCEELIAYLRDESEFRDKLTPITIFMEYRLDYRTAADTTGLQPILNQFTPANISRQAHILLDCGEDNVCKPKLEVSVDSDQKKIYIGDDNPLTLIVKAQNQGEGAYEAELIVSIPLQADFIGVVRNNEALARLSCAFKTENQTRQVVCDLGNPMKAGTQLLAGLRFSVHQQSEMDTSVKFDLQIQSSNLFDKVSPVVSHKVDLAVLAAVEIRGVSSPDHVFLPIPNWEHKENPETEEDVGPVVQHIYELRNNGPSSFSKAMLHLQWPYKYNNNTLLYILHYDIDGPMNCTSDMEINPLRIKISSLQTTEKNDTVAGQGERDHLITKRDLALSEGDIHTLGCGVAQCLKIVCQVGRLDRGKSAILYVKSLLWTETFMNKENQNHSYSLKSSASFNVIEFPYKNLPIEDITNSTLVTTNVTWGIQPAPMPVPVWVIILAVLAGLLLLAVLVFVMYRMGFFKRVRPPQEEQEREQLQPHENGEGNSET
Sequence of integrin αvβ3 (Homo sapiens) (P05106 27-788, chain 2 of 2, further chain): as the sequence (P05106 27-788) above

[5] = mouse, serum
[6] = human serum, 37 °C, 24 h, reversed-phase HPLC
[7] = system: U87MG cell adhesion to fibronectin-coated plates; assay: Integrin-dependent cell adhesion assay; assay type: cell-based, human; conditions: U87MG cells, 2 h

Sequence of Echistatin (P17347 131-179): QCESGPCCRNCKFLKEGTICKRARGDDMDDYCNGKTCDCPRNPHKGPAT

CC(C)C[C@@H]1NC(=O)[C@@H]2CSSC[C@@H](C(=O)NCC(=O)O)NC(=O)[C@H](Cc3ccccc3)NC(=O)CNC(=O)[C@H](CC(N)=O)NC(=O)[C@@H]3CCCN3C(=O)CNC(=O)[C@@H]3CSSC[C@H](NC(=O)[C@H]([C@@H](C)O)NC(=O)[C@H](CC(C)C)NC(=O)[C@@H]4CCCN4C(=O)[C@@H]4CCCN4C(=O)[C@H](CC(N)=O)NC(=O)[C@H](CC(=O)O)NC(=O)CNC(=O)[C@H](CCCNC(=N)N)NC(=O)[C@@H]4CCCN4C(=O)[C@H](CCCNC(=N)N)NC(=O)[C@@H]4CCCN4C(=O)[C@@H](NC(=O)CN)CSSC[C@H](NC(=O)CNC(=O)[C@H](C)NC1=O)C(=O)N[C@@H](C(C)C)C(=O)N3)C(=O)N[C@@H](CO)C(=O)N[C@@H](CCC(N)=O)C(=O)N[C@@H](CC(=O)O)C(=O)N[C@@H](CO)C(=O)N[C@@H](CC(=O)O)C(=O)N2 [2.5F] (H-GCPRPRGDNPPLTCSQDSDCLAGCVCGPNGFCG-OH; disulfide 2-24, 14-26, 20-32)
tumor uptake (in words) [1]: significant increase in tumor uptake

Ac-PHSCN-NH2 [ATN-161]
binding affinity to αvβ3 integrin (in words) [2]: micromolar affinity
binding affinity to α5β1 integrin (in words) [3]: micromolar affinity

Echistatin (from UniProt P17347)
Kd [4]: 0.36 nM

CC(C)C[C@@H]1NC(=O)[C@@H]2CSSC[C@@H](C(=O)NCC(=O)O)NC(=O)[C@H](Cc3ccccc3)NC(=O)CNC(=O)[C@H](CC(N)=O)NC(=O)[C@@H]3CCCN3C(=O)CNC(=O)[C@@H]3CSSC[C@H](NC(=O)[C@H](CO)NC(=O)[C@H]([C@@H](C)O)NC(=O)[C@@H]4CCCN4C(=O)[C@H](C)NC(=O)[C@H](Cc4c[nH]c5ccccc45)NC(=O)[C@H](CC(=O)O)NC(=O)CNC(=O)[C@H](CCCNC(=N)N)NC(=O)CNC(=O)[C@H](CCC(N)=O)NC(=O)[C@@H]4CCCN4C(=O)[C@@H](NC(=O)CN)CSSC[C@H](NC(=O)CNC(=O)[C@H](C)NC1=O)C(=O)N[C@@H](C(C)C)C(=O)N3)C(=O)N[C@@H](CO)C(=O)N[C@@H](CCC(N)=O)C(=O)N[C@@H](CC(=O)O)C(=O)N[C@@H](CO)C(=O)N[C@@H](CC(=O)O)C(=O)N2 [2.5D] (H-GCPQGRGDWAPTSCSQDSDCLAGCVCGPNGFCG-OH; disulfide 2-24, 14-26, 20-32)
remaining at 24 h [5]: ~90%
intact peptide remaining [6]: approximately 90%
tumor uptake (in words) [1]: significant increase in tumor uptake

Echistatin
block of U87MG cell adhesion to fibronectin-coated plates (in words) [7]: able to block
